This is an account of results in patent publication US20100015126A1, “Methods of Binding of Cross-Beta Structures By Chaperones” (priority 2006, published 2010).

In this assay the target is T1, BiP-Sepharose (Homo sapiens, UniProt P11021).
T1 construct: The human BiP gene except the signal peptide encoding region was obtained from Geneart (Germany); linker […]; made in house; host or cells: HEK 293E cells, transient transfection, PABC674 vector; secreted into the medium
As to the kind of experiment: BiP-Sepharose extraction of proteins from patient plasma, serum, synovial fluid and mass-spectrometric identification. It is filed as binding. The settings on record: for Specific binding to BiP-Sepharose from control serum: compared to RA patient III. The method, then:
BiP was coated on CNBr-Sepharose (GE-Healthcare, Amersham Biosciences). Immobilization of BiP was performed essentially as described elsewhere in this application for NHS-Sepharose. CNBr-matrix was dissolved at 200 mg/ml in 1 mM HCl and treated the same as the NHS-matrix, except for an additional 5 minutes activation step in 1 mM HCl on a roller device before washing in this buffer. BiP was diluted in immobilization buffer (50 mM NaCl and 40 mM NaHCO3) to a concentration of 820 μg/ml. A total volume of 2 ml BiP solution (1640 μg BiP) was incubated with 360 mg beads. Negative control matrix was exposed to immobilization buffer, only. After overnight immobilization matrix was blocked with Tris and washed.
Six samples were incubated with the BiP-Sepharose, IgIV-Sepharose and the control-Sepharose: Normal pooled plasma, plasma of a patient I or of a patient II, with AL amyloidosis, serum of a patient III with RA (Rheumatoid Factor (RF) titer 682), control serum and synovial fluid of a patient IV with RA (RF titer 23). All samples were diluted 20× in HBS and applied to 200 μl beads in two volumes of 500 μl. One volume was incubated for 4 h at RT and supernatant was discarded after centrifugation (2 minutes at 1400 rpm). Subsequently, the second volume was applied to the same matrix and incubated overnight on a roller device at 4° C. […] To collect the eluates, the matrices were centrifuged and the two eluates were pooled for each sample.
Protein digests were desalted as described (Rappsilber et al., 2003), vacuum dried and dissolved in 2.5% formic acid.
For analysis of peptide mixtures, an Agilent 1100 HPLC system (Agilent Technologies) connected to a Thermo Finnigan LTQ-MS (Thermo Electron, Bremen, Germany) was used. Protein digests were injected on a trap column (Reprosil C18 RP (Dr Maisch, Germany), 20 mm×100 μm I.D.) at 5 μl/minute. Subsequently, the peptides were transferred with a split-reduced flow rate of 100 nL/minute solvent A (0.1 M acetic acid) on the analytical column (Reprosil C18 RP, 20 cm×50 μm I.D.). […] The column effluent was directly introduced into the ESI source of the mass spectrometer via a butt-connected nano-ESI emitter (New Objectives, Woburn, Mass.). The mass spectrometer was operated in the positive ion mode and parent ions were selected for fragmentation in data-dependent mode.
After mass spectrometric measurements, peak lists were generated using BioWorks software (Thermo Electron, Bremen, Germany). Protein identification was performed using Mascot software (www.matrixscience.com) by searching the IPIhuman database (version 3.24, downloaded from ftp://ftp.ebi.ac.uk/pub/databases/IPI/current) using the following settings: fully tryptic peptides, peptide tolerance 0.8 Da, MS/MS tolerance 0.9 Da, 1 missed cleavage allowed, carbamidomethyl (Cys) and oxidation (Met) as fixed and variable modification, respectively. The Scaffold software package (www.proteomesoftware.com) was used to parse the data and to filter peptides at a confidence level of 95%, allowing only protein identification with at least 2 peptides identified.

The mark [1] stands for this setting: Sample B3: eluate of BiP-Sepharose contacted with AL amyloidosis patient II plasma.
The mark [2] stands for this setting: Sample B2: eluate of BiP-Sepharose contacted with AL amyloidosis patient I plasma.
The mark [3] stands for this setting: Sample B6: eluate of BiP-Sepharose contacted with RA patient IV synovial fluid.
Where [4] appears, read: Sample B4: eluate of BiP-Sepharose contacted with RA patient III serum.
The mark [5] stands for this setting: compared to AL amyloidosis patient I.
Setting [6] is: compared to AL amyloidosis patient II.

T1 sequence (P11021 19-654): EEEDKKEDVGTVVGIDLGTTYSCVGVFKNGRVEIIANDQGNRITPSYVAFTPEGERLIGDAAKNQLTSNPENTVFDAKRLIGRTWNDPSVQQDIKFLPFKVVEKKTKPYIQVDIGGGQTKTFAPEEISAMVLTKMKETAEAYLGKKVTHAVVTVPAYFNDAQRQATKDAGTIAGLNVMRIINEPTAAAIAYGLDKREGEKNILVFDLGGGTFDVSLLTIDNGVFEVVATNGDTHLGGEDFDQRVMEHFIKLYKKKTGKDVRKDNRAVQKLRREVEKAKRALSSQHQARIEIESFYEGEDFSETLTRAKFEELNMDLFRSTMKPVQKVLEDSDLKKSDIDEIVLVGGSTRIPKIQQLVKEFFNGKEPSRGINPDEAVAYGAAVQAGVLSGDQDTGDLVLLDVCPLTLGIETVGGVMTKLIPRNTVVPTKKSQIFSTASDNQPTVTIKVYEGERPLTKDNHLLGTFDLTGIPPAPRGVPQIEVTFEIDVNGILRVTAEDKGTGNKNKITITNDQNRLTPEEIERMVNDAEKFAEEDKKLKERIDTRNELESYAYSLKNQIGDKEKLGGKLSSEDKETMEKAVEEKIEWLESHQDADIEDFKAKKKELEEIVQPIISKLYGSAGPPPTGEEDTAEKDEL

For “25 kDa protein/Immunoglobulin lambda locus [IPI00747752]”, the “# of peptides in sample A#” value under setting [1] turned out to be 8.

On to “25 kDa protein/immunoglobulin lambda chain/rheumatoid factor G9 light chain (lambda V3)/IGLC1 protein [IPI00154742]”, for which the “# of peptides in sample A#” value came to 1 under setting [2] and 1 under setting [1].

On to “26 kDa protein/Immunoglobulin kappa variable 1-5 [IPI00430820]”, for which the “# of peptides in sample A#” value under setting [3] is 6.

For the substance “26 kDa protein/immunoglobulin kappa variable 1-5 [IPI00738024]”, the “# of peptides in sample A#” value came to 1 under setting [2] and 1 under setting [1].

With “187 kDa protein/Complement component 3 [IPI00164623]”, the “# of peptides in sample A#” value under setting [4] came out at 9.

Consider (sero)transferrin [IPI00022463], for which the “Specific binding to BiP-Sepharose from control serum” value was “specifically bound”. Under setting [5], the “Specific binding to BiP-Sepharose from normal pooled plasma” value is recorded as “specifically bound”.

For the substance “Alpha-1-antitrypsin precursor/Serpin peptidase inhibitor, clade A (alpha-1 antiproteinase, antitrypsin), member 1 [IPI00553177]”, the “# of peptides in sample A#” value under setting [4] turned out to be 1.

Alpha-2-macroglobulin [IPI00478003]: the “Specific binding to BiP-Sepharose from normal pooled plasma” value under setting [5] is listed as “specifically bound” and the “Specific binding to BiP-Sepharose from normal pooled plasma” value under setting [6] is recorded as “specifically bound”.

“Apolipoprotein E precursor/Apolipoprotein E/Apolipoprotein E3 (Fragment) [IPI00021842]”: the “# of peptides in sample A#” value under setting [2] worked out at 6.

Regarding “Complement component 4 binding protein, alpha, C4b-binding protein alpha chain precursor (C4bp) (Proline-rich protein/PRP) [IPI00021727]”, the “# of peptides in sample A#” value under setting [4] was determined as 7. Also, under setting [6], the “Specific binding to BiP-Sepharose from normal pooled plasma” value is reported as “specifically bound”.

In the case of “Dynein heavy chain domain 3/KIAA1503 protein (Fragment) [IPI00783464]”, the “# of peptides in sample A#” value under setting [1] is 2.

For “Fc fragment of IgG binding protein (IgGFc-binding protein precursor/FcgammaBP/Fcgamma-binding protein antigen) [IPI00242956]”, the “# of peptides in sample A#” value under setting [2] is given as 4.

As for “Full-length cDNA clone CS0DL004YM19 of B cells (Ramos cell line) of Homo sapiens (Fragment)/Unnamed protein product [IPI00328493]”, under setting [4], the “# of peptides in sample A#” value was 4.

As to “GCN1 general control of amino-acid synthesis 1-like 1 (yeast)/GCN1-like protein 1 (HsGCN1) [IPI00001159]”, the “# of peptides in sample A#” value under setting [4] came to 2.

As to “Hypothetical protein DKFZp686N02209/immunoglobulin heavy constant gamma 1 (G1m marker) [IPI00384938]”, the “# of peptides in sample A#” value under setting [1] is on record as 1.

Consider “Hypothetical protein LOC651928/Immunoglobulin kappa variable 1-5/IGKV2-24 protein [IPI00440577]”, for which the “# of peptides in sample A#” value runs as follows: under setting [1], 1; under setting [4], 1.

Regarding Hypothetical protein [IPI00784983], the “# of peptides in sample A#” value under setting [1] is reported as 2 and the “# of peptides in sample A#” value under setting [3] is listed as 1.

For the substance Hypothetical protein [IPI00807428], the “# of peptides in sample A#” value under setting [2] was found to be 1.

Take “Hypothetical protein/Heat shock 70 kDa protein 5 (glucose-regulated protein, 78 kDa = GRP78 = BiP = HSPA5) [IPI00003362]”: under setting [3], the “# of peptides in sample A#” value came out at 31.

Regarding “Hypothetical protein/Ig kappa chain V-II region RPMI 6410 precursor [IPI00550731]”, under setting [1], the “# of peptides in sample A#” value was determined as 1.

Take “Hypothetical protein/immunoglobulin lambda locus/immunoglobulin lambda chain C regions (1/2/3)/immunoglobulin lambda variable V2-14/Ig lambda C3 protein (C2 segment protein, C3 segment protein)/Hypothetical protein DKFZp667J0B10 (Fragment) [IPI00760678]”: the “# of peptides in sample A#” value under setting [2] stood at 1.

For “Hypothetical protein/immunoglobulin lambda variable 4-3 [IPI00382938]”, the “# of peptides in sample A#” value came out at 1 under setting [2] and 2 under setting [1].

“IGLC1 protein (immunoglobulin lambda C1)/immunoglobulin lambda chain/immunoglobulin C1 segment protein (fragment) [IPI00719373]”: the “# of peptides in sample A#” value by setting is: under setting [1], 1; under setting [4], 2; under setting [3], 1.

As for “IGLC2 protein (immunoglobulin lambda C2)/Immunoglobulin lambda [IPI00555945]”, the “# of peptides in sample A#” value under setting [2] was found to be 1.

With “Ig heavy chain V-III region CAM [IPI00382482]”, the “# of peptides in sample A#” value under setting [3] stood at 2.

“Ig heavy chain V-III region TUR/Ig heavy chain V-III region TIL [IPI00382478]”: the “# of peptides in sample A#” value under setting [4] is listed as 1.

As for “Ig kappa chain V-I region WEA/Similar to Ig kappa chain V-I region HK102 precursor/Ig kappa chain V-I region AU [IPI00003111]”, the “# of peptides in sample A#” value under setting [4] is listed as 2.

In the case of “Immunoglobulin J chain, Immunoglobulin J polypeptide, linker protein for immunoglobulin alpha and mu polypeptides [IPI00178926]”, under setting [4], the “# of peptides in sample A#” value is recorded as 5.

As to “Immunoglobulin lambda variable 3-25/V2-17 protein (Fragment) [IPI00550162]”, the “# of peptides in sample A#” value under setting [2] stood at 8 and the “# of peptides in sample A#” value under setting [4] is 10.

Take “Isoform 1 of Plectin-1/Plectin 1 (intermediate filament binding protein 500 kDa, Hemidesmosomal protein 1/HD1) [IPI00014898]”: the “# of peptides in sample A#” value under setting [1] came out at 1 and the “# of peptides in sample A#” value under setting [4] is reported as 2.

With “Isoform Long of Antigen KI-67/Antigen KI-67 [IPI00004233]”, the “# of peptides in sample A#” value under setting [2] came to 1.

As for “Myosin-reactive immunoglobulin light chain variable region/Ig kappa chain V-III region VH precursor (Fragment) [IPI00024138]”, under setting [4], the “# of peptides in sample A#” value was found to be 3.

With “Phosphatase and actin regulator 4 isoform 1/Hypothetical protein DKFZp686L07205 [IPI00217851]”, the “# of peptides in sample A#” value under setting [4] worked out at 2.

For “Single-chain Fv (Fragment) [IPI00470652]”, under setting [1], the “# of peptides in sample A#” value came to 2.

With “Vitronectin precursor (Serum-spreading factor/S-protein/V75 [Contains: Vitronectin V65 subunit; Vitronectin V10 subunit; Somatomedin B])/Vitronectin [IPI00298971]”, the “# of peptides in sample A#” value under setting [4] was 4.

For clusterin isoform 1 [IPI00291262], the “Specific binding to BiP-Sepharose from control serum” value is recorded as “specifically bound”. Moreover, the “Specific binding to BiP-Sepharose from normal pooled plasma” value under setting [6] is “specifically bound”.
